# Experimental data taken from patent US20230330093A1, “APPLICATION OF NITROGEN-CONTAINING SATURATED HETEROCYCLIC COMPOUND” (SHANGHAI PHARMACEUTICALS HOLDING CO., LTD., priority 2020, published 2023).
# “And” between values parts separate entries of the source, which are not always exact repeats. Equal values may be shown once.
# System: rhesus monkeys with spontaneous chronic kidney disease
# Assay: Effect on glomerular filtration rate eGFRcreat-cys, 8-week administration
# Format: in vivo, Macaca mulatta (Rhesus Macaque)
# Experimental: CKD-EPI rating […]-G3b, glomerular filtration rate eGFR: 30 59 ml/min/1.73 m^2; or moderate to severe increase in proteinuria (A2-A3): urine albumin/creatinine ratio (UACR)>15 mg/g-350 mg/g (4-6 hour urine collection), vs. age-matched control group 3±2 mg/g. In the trial, animals were brought in three stages. […] Glomerular filtration rate […]: creatinine (Cr-P), urea nitrogen (BUN) and cystatin (CysC) were detected, and the eGFR value was obtained by calculation. It was performed once before the administration and once every two weeks after the administration. […] ELISA kit was used for NT-proBNP test. [table] Selected […] in each group: 30 59 ml/min/1.73 m^2. The changes in the glomerular filtration rate of W8 and baseline were analyzed.
compound,measurement,setting,value
COC(=O)NCCCn1nc([C@@H](C)N(C(=O)[C@H]2CNCCO2)C2CC2)c2ccc(C)nc21.O=C(O)C[C@H](O)C(=O)O [malate of compound of Formula I],"eGFRcreat-cy, Change value","1 mg/kg oral once a day, 2 weeks vs baseline, per animal + Mean ± SD",1 ml/min/1.73 m^2 and 2 ml/min/1.73 m^2 and −3 ml/min/1.73 m^2 and −2 ml/min/1.73 m^2 and 4 ml/min/1.73 m^2
same,"eGFRcreat-cy, Change value","1 mg/kg oral once a day, 2 weeks vs baseline, per animal + Mean ± SD, mean",0 ± 3 ml/min/1.73 m^2
same,"eGFRcreat-cy, Change value","1 mg/kg oral once a day, 4 weeks vs baseline, per animal + Mean ± SD",8 ml/min/1.73 m^2 and 10 ml/min/1.73 m^2 and 3 ml/min/1.73 m^2 and 1 ml/min/1.73 m^2 and 5 ml/min/1.73 m^2
same,"eGFRcreat-cy, Change value","1 mg/kg oral once a day, 4 weeks vs baseline, per animal + Mean ± SD, mean",5 ± 4 ml/min/1.73 m^2
same,"eGFRcreat-cy, Change value","1 mg/kg oral once a day, 6 weeks vs baseline, per animal + Mean ± SD",7 ml/min/1.73 m^2 and 3 ml/min/1.73 m^2 (3×) and 6 ml/min/1.73 m^2
same,"eGFRcreat-cy, Change value","1 mg/kg oral once a day, 6 weeks vs baseline, per animal + Mean ± SD, mean",4 ± 2 ml/min/1.73 m^2
same,"eGFRcreat-cy, Change value","1 mg/kg oral once a day, 8 weeks vs baseline, per animal + Mean ± SD (no statistical change vs placebo)",3±4 ml/min/1.73 m^2 and 7 ml/min/1.73 m^2 and 6 ml/min/1.73 m^2 and 0 ml/min/1.73 m^2 and 2 ml/min/1.73 m^2 and 5 ml/min/1.73 m^2
same,"eGFRcreat-cy, Change value","1 mg/kg oral once a day, Baseline, per animal + Mean ± SD",0 ml/min/1.73 m^2
same,"eGFRcreat-cy, Change value","1 mg/kg oral once a day, Baseline, per animal + Mean ± SD, mean",0 ± 0 ml/min/1.73 m^2
same,eGFRcreat-cys,"1 mg/kg qd (n = 5), 2 weeks",53 ml/min/1.73 m^2 and 56 ml/min/1.73 m^2 and 50 ml/min/1.73 m^2 and 48 ml/min/1.73 m^2
same,eGFRcreat-cys,"1 mg/kg qd (n = 5), 2 weeks, group mean",52 ± 3 ml/min/1.73 m^2
same,eGFRcreat-cys,"1 mg/kg qd (n = 5), 4 weeks",60 ml/min/1.73 m^2 and 64 ml/min/1.73 m^2 and 55 ml/min/1.73 m^2 and 52 ml/min/1.73 m^2 and 56 ml/min/1.73 m^2
same,eGFRcreat-cys,"1 mg/kg qd (n = 5), 4 weeks, group mean",57 ± 5 ml/min/1.73 m^2
same,eGFRcreat-cys,"1 mg/kg qd (n = 5), 6 weeks",58 ml/min/1.73 m^2 and 57 ml/min/1.73 m^2 and 56 ml/min/1.73 m^2 and 53 ml/min/1.73 m^2
same,eGFRcreat-cys,"1 mg/kg qd (n = 5), 6 weeks, group mean",56 ± 2 ml/min/1.73 m^2
same,eGFRcreat-cys,"1 mg/kg qd (n = 5), 8 weeks",58 ml/min/1.73 m^2 and 59 ml/min/1.73 m^2 and 53 ml/min/1.73 m^2 and 48 ml/min/1.73 m^2 and 57 ml/min/1.73 m^2
same,eGFRcreat-cys,"1 mg/kg qd (n = 5), 8 weeks, group mean",55 ± 5 ml/min/1.73 m^2
same,eGFRcreat-cys,"1 mg/kg qd (n = 5), Baseline, single animals and Mean ± SD",51 ml/min/1.73 m^2 and 54 ml/min/1.73 m^2 and 53 ml/min/1.73 m^2 and 50 ml/min/1.73 m^2 and 52 ml/min/1.73 m^2
same,eGFRcreat-cys,"1 mg/kg qd (n = 5), Baseline, single animals and Mean ± SD, group mean",52 ± 1 ml/min/1.73 m^2
same,"eGFRcreat-cy, Change value","2 mg/kg oral once a day, 2 weeks vs baseline, per animal + Mean ± SD",5 ml/min/1.73 m^2 and −3 ml/min/1.73 m^2 (3×) and 0 ml/min/1.73 m^2
same,"eGFRcreat-cy, Change value","2 mg/kg oral once a day, 2 weeks vs baseline, per animal + Mean ± SD, mean",−1 ± 3 ml/min/1.73 m^2
same,"eGFRcreat-cy, Change value","2 mg/kg oral once a day, 4 weeks vs baseline, per animal + Mean ± SD",7 ml/min/1.73 m^2 and −5 ml/min/1.73 m^2 and 1 ml/min/1.73 m^2 (2×) and 10 ml/min/1.73 m^2
same,"eGFRcreat-cy, Change value","2 mg/kg oral once a day, 4 weeks vs baseline, per animal + Mean ± SD, mean",3 ± 6 ml/min/1.73 m^2
same,"eGFRcreat-cy, Change value","2 mg/kg oral once a day, 6 weeks vs baseline, per animal + Mean ± SD",4 ml/min/1.73 m^2 and −1 ml/min/1.73 m^2 and 0 ml/min/1.73 m^2 and 5 ml/min/1.73 m^2 (2×)
same,"eGFRcreat-cy, Change value","2 mg/kg oral once a day, 6 weeks vs baseline, per animal + Mean ± SD, mean",3 ± 3 ml/min/1.73 m^2
same,"eGFRcreat-cy, Change value","2 mg/kg oral once a day, 8 weeks vs baseline, per animal + Mean ± SD (p<0.05 vs placebo)",3±3 ml/min/1.73 m^2 and 5 ml/min/1.73 m^2 and 0 ml/min/1.73 m^2 and 2 ml/min/1.73 m^2 and 6 ml/min/1.73 m^2 and 1 ml/min/1.73 m^2
same,"eGFRcreat-cy, Change value","2 mg/kg oral once a day, Baseline, per animal + Mean ± SD",0 ml/min/1.73 m^2
same,"eGFRcreat-cy, Change value","2 mg/kg oral once a day, Baseline, per animal + Mean ± SD, mean",0 ± 0 ml/min/1.73 m^2
same,eGFRcreat-cys,"2 mg/kg qd (n = 5), 2 weeks",58 ml/min/1.73 m^2 and 47 ml/min/1.73 m^2 and 46 ml/min/1.73 m^2 and 43 ml/min/1.73 m^2 and 57 ml/min/1.73 m^2
same,eGFRcreat-cys,"2 mg/kg qd (n = 5), 2 weeks, group mean",50 ± 7 ml/min/1.73 m^2
same,eGFRcreat-cys,"2 mg/kg qd (n = 5), 4 weeks",61 ml/min/1.73 m^2 and 45 ml/min/1.73 m^2 and 50 ml/min/1.73 m^2 and 56 ml/min/1.73 m^2 and 59 ml/min/1.73 m^2
same,eGFRcreat-cys,"2 mg/kg qd (n = 5), 4 weeks, group mean",54 ± 7 ml/min/1.73 m^2
same,eGFRcreat-cys,"2 mg/kg qd (n = 5), 6 weeks",58 ml/min/1.73 m^2 and 48 ml/min/1.73 m^2 and 51 ml/min/1.73 m^2 and 62 ml/min/1.73 m^2
same,eGFRcreat-cys,"2 mg/kg qd (n = 5), 6 weeks, group mean",54 ± 6 ml/min/1.73 m^2
same,eGFRcreat-cys,"2 mg/kg qd (n = 5), Baseline, single animals and Mean ± SD",54 ml/min/1.73 m^2 and 50 ml/min/1.73 m^2 and 48 ml/min/1.73 m^2 and 46 ml/min/1.73 m^2 and 58 ml/min/1.73 m^2
same,eGFRcreat-cys,"2 mg/kg qd (n = 5), Baseline, single animals and Mean ± SD, group mean",51 ± 5 ml/min/1.73 m^2
same,"eGFRcreat-cy, Change value","5 mg/kg oral once a day, 2 weeks vs baseline, per animal + Mean ± SD",4 ml/min/1.73 m^2 and 9 ml/min/1.73 m^2 and 11 ml/min/1.73 m^2 and −4 ml/min/1.73 m^2 and 1 ml/min/1.73 m^2 and 17 ml/min/1.73 m^2
same,"eGFRcreat-cy, Change value","5 mg/kg oral once a day, 2 weeks vs baseline, per animal + Mean ± SD, mean",5 ± 9 ml/min/1.73 m^2
same,"eGFRcreat-cy, Change value","5 mg/kg oral once a day, 4 weeks vs baseline, per animal + Mean ± SD",−3 ml/min/1.73 m^2 and 4 ml/min/1.73 m^2 and 6 ml/min/1.73 m^2 and 2 ml/min/1.73 m^2 and 12 ml/min/1.73 m^2 and 11 ml/min/1.73 m^2
same,"eGFRcreat-cy, Change value","5 mg/kg oral once a day, 4 weeks vs baseline, per animal + Mean ± SD, mean",5 ± 6 ml/min/1.73 m^2
same,"eGFRcreat-cy, Change value","5 mg/kg oral once a day, 6 weeks vs baseline, per animal + Mean ± SD",−1 ml/min/1.73 m^2 (2×) and 6 ml/min/1.73 m^2 and −2 ml/min/1.73 m^2 and 11 ml/min/1.73 m^2 (2×)
same,"eGFRcreat-cy, Change value","5 mg/kg oral once a day, 6 weeks vs baseline, per animal + Mean ± SD, mean",4 ± 6 ml/min/1.73 m^2
same,"eGFRcreat-cy, Change value","5 mg/kg oral once a day, 8 weeks vs baseline, per animal + Mean ± SD (p<0.05 vs placebo)",6±6 ml/min/1.73 m^2 and 3 ml/min/1.73 m^2 and 6 ml/min/1.73 m^2 and 4 ml/min/1.73 m^2 and 2 ml/min/1.73 m^2 and 8 ml/min/1.73 m^2 and 17 ml/min/1.73 m^2
same,"eGFRcreat-cy, Change value","5 mg/kg oral once a day, Baseline, per animal + Mean ± SD",0 ml/min/1.73 m^2
same,"eGFRcreat-cy, Change value","5 mg/kg oral once a day, Baseline, per animal + Mean ± SD, mean",0 ± 0 ml/min/1.73 m^2
same,eGFRcreat-cys,"5 mg/kg qd (n = 6), 2 weeks",51 ml/min/1.73 m^2 and 57 ml/min/1.73 m^2 and 62 ml/min/1.73 m^2 and 37 ml/min/1.73 m^2 and 54 ml/min/1.73 m^2 and 61 ml/min/1.73 m^2
same,eGFRcreat-cys,"5 mg/kg qd (n = 6), 2 weeks, group mean",54 ± 9 ml/min/1.73 m^2
same,eGFRcreat-cys,"5 mg/kg qd (n = 6), 6 weeks",53 ml/min/1.73 m^2 and 54 ml/min/1.73 m^2 and 49 ml/min/1.73 m^2 and 40 ml/min/1.73 m^2 and 64 ml/min/1.73 m^2
same,eGFRcreat-cys,"5 mg/kg qd (n = 6), 6 weeks, group mean",53 ± 8 ml/min/1.73 m^2
same,eGFRcreat-cys,"5 mg/kg qd (n = 6), 8 weeks",57 ml/min/1.73 m^2 and 53 ml/min/1.73 m^2 and 55 ml/min/1.73 m^2 and 43 ml/min/1.73 m^2 and 61 ml/min/1.73 m^2 and 60 ml/min/1.73 m^2
same,eGFRcreat-cys,"5 mg/kg qd (n = 6), 8 weeks, group mean",55 ± 7 ml/min/1.73 m^2
same,eGFRcreat-cys,"5 mg/kg qd (n = 6), Baseline, single animals and Mean ± SD",55 ml/min/1.73 m^2 and 48 ml/min/1.73 m^2 and 51 ml/min/1.73 m^2 and 41 ml/min/1.73 m^2 and 53 ml/min/1.73 m^2 and 43 ml/min/1.73 m^2
